{
  "source": "patent US20110033850A1",
  "about": "“COMPOSITIONS AND METHODS FOR THE IDENTIFICATION OF INHIBITORS OF RETROVIRAL INFECTION” (priority 2007, published 2011)",
  "tested_on": "HIV",
  "test": "anti-HIV activity in freshly harvested PBMC cells (secondary HIV assay)",
  "assay_type": "cell-based",
  "procedure": "These compounds were analyzed for anti-HIV activity in freshly harvested PBMC cells. Of the 30 tested compounds, 15 were active at a concentration of less than 100 ˜M (the highest tested concentration). Of these 15 compounds, 9 were […] to the PBMC cells at the 100 ˜M concentration; thus, an absolute conclusion regarding the differential toxicity to HIV and PBMC cells cannot be drawn with these 9 compounds. […]",
  "data": [
    {"smiles": "O=C1c2ccccc2C(=O)c2c1nc1ccccn21", "note": "[naphtho[2′,3′,4,5]imidazo[1,2-a]pyridine-6,11-dione]", "values": [
      {"measurement": "anti-HIV activity", "value": 0.63, "unit": "µM"}
    ]},
    {"smiles": "CN(C)c1cccc2c(C=O)ccc(N(C)C)c12", "values": [
      {"measurement": "anti-HIV activity", "value": 0.022, "unit": "µM"}
    ]}
  ]
}
